Assay results from patent publication US7199216B1, “Peptide constructs for treating autoimmune and related diseases” (Cel-Sci Corporation, priority 1999, dated 2007).
No end group written: not given here.

Columns and labels:
[1] = Immunogenicity of TCBL peptides judged by development of antibodies that react to the peptides; type: in vivo; conditions: judged by the lack of developing antibodies that react to these peptides
Excerpt: (§1) The antigenic portion My-1 of these constructs is immunogenic in several strains of mice and in rabbits.

[2] = tested on: several strains of mice; experiment: Immunogenicity in mice; type: in vivo
Excerpt: as §1

[3] = tested on: rabbits; experiment: Immunogenicity in rabbits; type: in vivo
Excerpt: as §1

[4] = tested on: A/J strain of mice; conditions: injected in the presence of adjuvant; cited from earlier work

| Substance | immunogenicity [1] | immunogenicity [2] | immunogenicity [3] | induction of myocarditis [4] |
| --- | --- | --- | --- | --- |
| Asn Gly Gln Glu Glu (Xaa) Ala Gly Val Val Ser Thr Gly Leu Ile [m-G] | only poorly immunogenic |  |  |  |
| Asp Leu Leu Lys Asn Gly Glu Arg (Xaa) Glu Lys Val Glu [m-J] | only poorly immunogenic |  |  |  |
| DSAFDVLSFTAEEKAGVYK [myocardiogenic peptide derived from murine cardiac myosin heavy chain (amino acids 334–352)] |  | immunogenic | immunogenic | induce severe myocarditis |
| NGQEEKAGVVSTGLI (peptide G) [non-modified TCBL from the beta-2 domain of HLA/MHC class II molecule] | only poorly immunogenic |  |  |  |
